The test system of the test is Aβ production (APP-751 Swedish mutation transfected cells 293 751 SWE and CHO 751 SWE). Description: Aβ production inhibition activity in cells (Aβ ELISA of conditioned media, normalized for MTT cytotoxicity). Format: cell-based. The conditions noted are these: 2 h pretreatment + 2 h, normalized to MTT, mean of at least six replicate assays, cell line not stated, read-out: IC50 (concentration of test compound required to inhibit Aβ production by 50%). Here is the method:
Two cell lines (human kidney cell line 293 and Chinese hamster ovary cell line CHO) were stably transfected with the gene for APP-751 containing the double mutation Lys651 -Met652 to Asn651 -Leu652 (APP-751 numbering) commonly called the Swedish mutation using the method described in Citron et al., (1992) Nature 360: 672-674. The transfected cell lines were designated as 293 751 SWE and CHO 751 SWE, and were plated in Corning 96 well plates at 2.5×10^4 or 1×10^4 cells per well respectively in Dulbecco's minimal essential media plus 10% fetal bovine serum. Following overnight incubation at 37° C. in an incubator equilibrated with 10% carbon dioxide (CO2), the media were removed and replaced with 200 μL per well of media containing a test compound. After a two hour pretreatment period, the media were again removed and replaced with fresh media containing the test compound and the cells were incubated for an additional two hours.
Test compound stocks were prepared in DMSO such that at the final concentration used in the treatment, the concentration of DMSO did no exceed 0.5%. After treatment, plates were centrifuged in a Beckman GPR at 1200 rpm for five minutes at room temperature to pellet cellular debris from the conditioned media. From each well, 100μL of conditioned media were transferred into an ELISA plate precoated with antibody 266 against βAP-13-28 (Seubert et al , supra.) and stored at 4° C. overnight. An ELISA assay employing labeled antibody 6C6 (against βAP-1-16) was run the next day to measure the amount of Aβ produced.
Cytotoxic effects of the test compounds were measured by a modification of the method of Hansen et al., (1989) J. Immun. Meth. 119: 203-210. To the cells remaining in the tissue culture plate, was added 25 μL of a 3,(4,5-dimethylthiazol-2-yl)2,5-diphenyltetrazolium bromide (MTT) stock solution (5 mg/mL) to a final concentration of 1 mg/mL. Cells were incubated at 37° C. for one hour, and cellular activity was stopped by the addition of an equal volume of MTT lysis buffer (20% w/v sodium dodecylsulfate in 50% DMF, pH 4.7). Complete extraction was achieved by overnight shaking at room temperature. The difference in the OD562 nm and the OD650 nm was measured in a Molecular Devices UVmax microplate reader as an indicator of the cellular viability.
The results of the Aβ ELISA were fit to a standard curve and expressed as ng/mL Aβ peptide. In order to normalize for cytotoxicity, these Aβ results were divided by the MTT results and expressed as a percentage of the results from a drug-free control.
The test compounds were assayed for Aβ production inhibition activity in cells at 10 μg/mL using the test. The results presented in Table 1 are the mean and standard deviation of at least six replicate assays. IC50 means the concentration of test compound in micromoles/liter required to inhibit Aβ production by 50%.
In general terms: ELISA stands for enzyme-linked immunosorbent assay.
As to `FC(F)(F)c1cc(NC(=S)Nc2ccc(Sc3ccc4ccccc4n3)cc2)ccc1Cl` [Example 1, 1-[4-(2-quinolyl)thiophenyl]-3-(4-chloro-3-trifluoromethyphenyl)thiourea], the IC50 was 3.7 µM. The same measure for `CCOC(=O)c1cc(Sc2ccc(NC(=S)Nc3ccc(Cl)c(C(F)(F)F)c3)cc2)nc2ccccc12` [Example 2, 1-[4-(4-ethoxycarbonyl-2-quinolylthio)phenyl]-3-(4-chloro-3-trifluoromethylphenyl)thiourea]: 3.1 µM; for `FC(F)(F)c1cc(NC(=S)Nc2ccc(Sc3ccc4cc(Cl)ccc4n3)cc2)ccc1Cl` [Example 3, 1-[4-(6-Chloro-2-quinolylthio)phenyl]-3-(4-chloro-3-trifluoromethylphenyl)thiourea]: 2.7 µM; for `FC(F)(F)c1cc(NC(=S)Nc2ccc(Sc3cc(-c4ccccc4)c4ccccc4n3)cc2)ccc1Cl` [Example 4, 1-[4-(4-Phenyl-2-quinolylthio)phenyl]-3-(4-chloro-3-trifluoromethylphenyl)thiourea]: above 20 µM. Turning to `COc1ccc2nc(Sc3ccc(NC(=S)Nc4ccc(Cl)c(C(F)(F)F)c4)cc3)ccc2c1` [Example 5, 1-[4-(6-Methoxy-2-quinolylthio)phenyl]-3-(4-chloro-3-trifluoromethylphenyl)thiourea], the IC50 came out at 4.4 µM. As for `FC(F)(F)c1cc(NC(=S)Nc2ccc(Sc3ccnc4ccccc34)cc2)ccc1Cl` [Example 6, 1-[4-(4-Quinolylthio)phenyl]-3-(4-chloro-3-trifluoromethylphenyl)thiourea], the IC50 amounted to 4.7 µM. For `FC(F)(F)c1ccc2c(Sc3ccc(NC(=S)Nc4ccc(Cl)c(C(F)(F)F)c4)cc3)ccnc2c1` [Example 7, 1-[4-(7-Trifluoromethyl-4-quinolylthio)phenyl]-3-(4-chloro-3-trifluoromethylphenyl)thiourea], the IC50 came to 4.5 µM. The same measure for `FC(F)(F)c1cc(NC(=S)Nc2ccc(Sc3ccc4ccccc4c3)cc2)ccc1Cl` [Example 8, 1-[4-(2-Naphthylthio)phenyl]-3-(4-chloro-3-trifluoromethylphenyl)thiourea]: 2.6 µM. With `FC(F)(F)c1cc(NC(=S)Nc2ccc(Sc3cccc4ccccc34)cc2)ccc1Cl` [Example 9] the figure was 4.9 µM; with `FC(F)(F)c1cc(NC(=S)Nc2ccc(Sc3nc4ccccc4[nH]3)cc2)ccc1Cl` [Example 10, 1-[4-(2-Benzimidazolylthio)phenyl]-3-(4-chloro-3-trifluoromethylphenyl)thiourea], 7.1 µM; with `FC(F)(F)c1cc(NC(=S)Nc2ccc(Sc3nc4ccccc4o3)cc2)ccc1Cl` [Example 11, 1-[4-(2-Benzoxazolylthio)phenyl]-3-(4-chloro-3-trifluoromethylphenyl)thiourea], 12.5 µM. `FC(F)(F)c1cc(NC(=S)Nc2ccc(Sc3nc4ccccc4s3)cc2)ccc1Cl` [Example 12, 1-[4-(2-Benzothiazolylthio)phenyl]-3-(4-chloro-3-trifluoromethylphenyl)thiourea]: the IC50 came out at 3.9 µM. The same measure for `FC(F)(F)c1cc(NC(=S)Nc2ccc(Sc3nc4cc(Cl)ccc4s3)cc2)ccc1Cl` [Example 13, 1-[4-(5-Chloro-2-benzothiazolylthio)phenyl]-3-(4-chloro-3-trifluoromethylphenyl)thiourea]: 1.7 µM; for `[O-][S+](c1ccc(NC(=S)Nc2ccc(Cl)c(C(F)(F)F)c2)cc1)c1ccc2ccccc2n1` (stereo not shown) [Example 14, 1-[4-(2-Quinolylsulfinyl)phenyl]-3-(4-chloro-3-trifluoromethylphenyl)thiourea]: 12.1 µM. Regarding `O=S(=O)(c1ccc(NC(=S)Nc2ccc(Cl)c(C(F)(F)F)c2)cc1)c1ccc2ccccc2n1` [Example 15, 1-[4-(2-Quinolylsulfonyl)phenyl]-3-(4-chloro-3-trifluoromethylphenyl)thiourea], the IC50 turned out to be 3.7 µM. Consider `FC(F)(F)c1cc(NC(=S)Nc2ccc(Nc3ccc4ccccc4n3)cc2)ccc1Cl` [Example 16, 1-[4-(2-quinolylamino)phenyl]-3-(4-chloro-3-trifluoromethylphenyl)thiourea], for which the IC50 amounted to 11.8 µM. Turning to `FC(F)(F)c1cc(NC(=S)Nc2ccc(Oc3ccc4ccccc4n3)cc2)ccc1Cl` [Example 17, 1-[4-(2-Quinolyloxy)phenyl]-3-(4-chloro-3-trifluoromethylphenyl)thiourea], the IC50 came to 9.7 µM. The same measure for `O=C(Nc1ccc(Sc2ccc3ccccc3n2)cc1)Nc1ccc(Cl)c(C(F)(F)F)c1` [Example 18, 1-[4-(2-Quinolylthio)phenyl]-3-(4-chloro-3-trifluoromethylphenyl]urea]: above 20 µM; for `S=C(Nc1ccc(Sc2ccc3ccccc3n2)cc1)Nc1ccc(Cl)c(Cl)c1` [Example 19, 1-[4-(2-Quinolylthio)phenyl]-3-(3,4-dichlorophenyl)thiourea]: 13.8 µM. As to `FC(F)(F)c1cc(NC(=S)Nc2ccc(Sc3ccc(-c4ccccc4)nn3)cc2)ccc1Cl` [Example 20], the IC50 turned out to be 4.4 µM. As for `FC(F)(F)c1cc(NC(=S)Nc2ccc(Sc3ccccn3)cc2)ccc1Cl` [Example 21], the IC50 is 8.3 µM. With `O=[N+]([O-])c1c(Sc2ccc(NC(=S)Nc3ccc(Cl)c(C(F)(F)F)c3)cc2)ccc2ncccc12` [Example 22] the figure was 4.3 µM.

Source of the values: US5624937A, “Chemical compounds as inhibitors of amyloid beta protein production” (Eli Lilly and Company, priority 1995, dated 1997).
